In US20150258194A1, “MODULATING TRANSENDOTHELIAL MIGRATION AND RECRUITMENT OF GRANULOCYTES BY MODULATING C-MET PATHWAY” (VIB VZW, priority 2012, published 2015):

Legend:
[1] = tested on: MET expression in human neutrophils; assay: Q-PCR / Western blot of MET expression in human neutrophils; type: cell-based; details: Enbrel
Procedure: Western blot: 2×10^6 bone marrow neutrophils from WT mice were stimulated with TCM, CCM, 100 ng/ml of murine TNF-α (or mock medium 0% FBS or 10% FBS as control) for 20 hours at 37° C. For the co-culture with HUVEC, a monolayer of HUVEC was stimulated for 4 hours with 5 ng/ml IL-1 at 37° C., and washed before neutrophil seeding. After 20 hours of stimulation, neutrophils were collected using Cell Dissociation Buffer, Enzyme Free, PBS-Based (Gibco). Cells were washed in PBS, lysed in 15 μl of a protease inhibitor mixture and incubated for 15 minutes on ice. The stock solution was obtained by dissolving one tablet of Complete Mini protease inhibitor mixture (CI, Roche) in 5 ml of PBS with 2 mM diisopropyl fluorophosphate (DFP; Acros Organics, Morris Plains, N.J.). After addition of an equal amount of 2×SDS sample buffer supplemented with 4% 2-mercaptoethanol, the lysates were boiled for 15 minutes and kept at -80° C. until use. […] Cell lysates were sonicated, cleared and quantified. […] Quantitative RT-PCR: for mRNA analysis, 1×10^5 or 3×10^5 mouse or human neutrophils, respectively, were incubated in normoxic (21% oxygen) or hypoxic condition (1% oxygen) or stimulated with TCM (plus 50 μg/ml Enbrel or human IgG when indicated), CCM, A549-CM, 100 ng/ml of murine or human TNF-α, 50 ng/ml LPS, or mock medium in 96-multiwell for 4 hours at 37° C. […]

[2] = tested on: Met expression in neutrophils; assay: Q-PCR / Western blot of Met expression in mouse neutrophils; type: cell-based
Procedure: Western blot: 2×10^6 bone marrow neutrophils from WT mice were stimulated with TCM, CCM, 100 ng/ml of murine TNF-α (or mock medium 0% FBS or 10% FBS as control) for 20 hours at 37° C. For the co-culture with HUVEC, a monolayer of HUVEC was stimulated for 4 hours with 5 ng/ml IL-1 at 37° C., and washed before neutrophil seeding. After 20 hours of stimulation, neutrophils were collected using Cell Dissociation Buffer, Enzyme Free, PBS-Based (Gibco). Cells were washed in PBS, lysed in 15 μl of a protease inhibitor mixture and incubated for 15 minutes on ice. The stock solution was obtained by dissolving one tablet of Complete Mini protease inhibitor mixture (CI, Roche) in 5 ml of PBS with 2 mM diisopropyl fluorophosphate (DFP; Acros Organics, Morris Plains, N.J.). After addition of an equal amount of 2×SDS sample buffer supplemented with 4% 2-mercaptoethanol, the lysates were boiled for 15 minutes and kept at -80° C. until use. 30×10^6 neutrophils purified from healthy volunteer blood and stimulated with A549-CM, 100 ng/ml of human TNF-α, 50 ng/ml LPS (or mock medium 10% FBS as control) for 20 hours. Cells were incubated with DFP 2.7 mM for 15' at 4° C., collected and washed in PBS, DFP 2.7 mM, CI 1X, and lysed in hot […] buffer (25% SDS 10%, 25% Tris-HCl pH 6.8) at 96° C. for 10'. Cell lysates were sonicated, cleared and quantified. 6× loading buffer was added before loading on the gel. The following antibodies were used: mouse anti-mouse Met (clone 3D4; Invitrogen), mouse anti-mouse β-actin (Santa Cruz), rabbit anti-human Met (clone D1C2-XP; Cell Signaling), HRP-conjugated anti-beta-tubulin (Abcam). Signal was visualized by Enhanced Chemiluminescent Reagents (ECL, Invitrogen) or West Femto by Thermo Scientific according to the manufacturer's instructions. Quantitative RT-PCR: for mRNA analysis, 1×10^5 or 3×10^5 mouse or human neutrophils, respectively, were incubated in normoxic (21% oxygen) or hypoxic condition (1% oxygen) or stimulated with TCM (plus 50 μg/ml Enbrel or human IgG when indicated), CCM, A549-CM, 100 ng/ml of murine or human TNF-α, 50 ng/ml LPS, or mock medium in 96-multiwell for 4 hours at 37° C. 2×10^5 HUVEC were seeded in 24-multiwell coated with 0.1% gelatin and stimulated with 5 ng/ml IL-1 in DMEM 10% FBS for 4 hours at 37° C. Cells were washed in PBS, collected in RLT buffer (QIAGEN®) and kept at -80° C. RNA was extracted with an RNase Micro kit (QIAGEN®) according to manufacturer's instructions. Reverse transcription to cDNA was performed with the SuperScript III Reverse Transcriptase (Invitrogen) according to manufacturer's protocol. […]

With Enbrel [reference compound] the “Met induction in human neutrophils stimulated with A549-CM” value [1] was “abolishment of Met induction”, the “Met induction in mouse neutrophils stimulated with TCM” value ([2]; TCM, 50 μg/ml Enbrel) was “abolishment of Met induction” and the “Met induction in neutrophils upon co-culture with activated ECs” value ([2]; mouse neutrophils, HUVEC (IL-1), TNF-a blockade) was “prevented Met induction”.
